One compound from US11248016B2, “Glycolipids and pharmaceutical compositions thereof for use in therapy” (THE UNIVERSITY OF NOTTINGHAM, priority 2014, dated 2022) can be followed below.

The test system of series [1] is primary canine histocytic sarcoma tumour cells. Description: Primary canine tumour cell experiments. The format is cell-based, dog. The settings on record: Cisplatin (10 μM) plus Formula II, 6 days. The procedure:
Cells were cultured for 6 days with a single dose treatment of Cisplatin™ (10 μM) or a combination of Cisplatin™ plus a compound of Formula II (active). Images were taken after 6 days treatment and are representative of three independently treated wells. Each image (40× magnification) represents the majority of the well area and is of an equivalent area in each photograph.
(§1) Known inhibitors of protein synthesis such as hippuristanol have proven potent anti-cancer properties when used in combination with chemotherapeutic agents such as Cisplatin™ or Doxorubicin™. However hippuristanol is naturally found in coral to is scarce and expensive to obtain, furthermore it is very difficult and expensive to synthesise. […] In particular this combination has a potent effect at slowing proliferation or killing cancer cells. Slow growing and difficult to treat tumour cell types such as A549 lung cancer cells, SH-SY5Y neuroblastoma or SKOV-3 cancer cells are all sensitised by exposure to Formula II to very low doses of Cisplatin™ (FIGS. 4d, 4e, 4f and 7)—a complete kill can be achieved in both A549 and SH-SY5Y cells after a single dose treatment with g quantities of a compound of Formula II in combination with 1 μM or 2.5 μM treatments of Cisplatin™. […]

The subject of series [2] is A549 lung carcinoma cells. Nature of the series: Cell proliferation, A549 (WST-1 / MTT). The format is cell-based. How it is done:
Cisplatin™ resistant A549 lung cancer cells were sensitised to treatment with a compound of Formula II in combination with 1 μM Cisplatin™—a complete kill is achieved at higher doses of a compound of Formula II.
Cells were treated with a range of doses of active for either 48 or 96 hrs. Each data point is representaive of at least 4 biological repetitions.
Cells were treated with either 2 μM Cisplatin™ alone, c. 1 μg active alone or c. 1 μg active in combination with 2 μM Cisplatin™. A WST-1 cell proliferation assay was performed 96 hrs after treatment. Experiment represents 4 independent biological repetitions.
A WST-1 cell proliferation assay was performed 72 hrs after treatment. Experiment represents 4 independent biological repetitions.
Cells were treated with either 2 μM or 10 μM Cisplatin™ alone, or 10 μg synthetic molecule Formula II in combination with 2 μM Cisplatin™. A WST-1 cell proliferation assay was performed 72 hrs after treatment. Experiment represents 4 independent biological repetitions. A 5-fold increase in the efficacy of Cisplatin™ is observed when treated in combination with the synthetic Formula II.
Cells were treated with either 2 μM, 5 μM or 10 μM Cisplatin™ alone, 50 μg synthetic acetyl derivative molecule or 30 μg in combination with 2 μM Cisplatin™. A WST-1 cell proliferation assay was performed 72 hrs after treatment. Experiment represents four independent biological repetitions. No effect was detected after treatment with 50 μg synthetic acetyl derivative, however an 8-fold increase in the efficacy of Cisplatin™ is observed when treated in combination with 30 μg synthetic acetyl derivative and […] Cisplatin™.
FIG. 11—Natural molecule plus cisplatin compared to Hippuristanol plus cisplatin. […] The ratio between anti-proliferative activity to chemo sensitizing activity is also equivalent.
FIG. 13—Dose curves of compounds 46, 99 and 123. […] Cells were treated with a range of doses of active for 96 hrs. Each data point is representative of at least 4 biological repetitions and error=s.e.m).
FIG. 14—Cisplatin™ combination experiments—Compounds 46, 99 and 123. […] Cells were treated with a range of doses of active in combination with a range of doses of Cisplatin™ for 96 hrs. Each data point is representative of at least 4 biological repetitions and error=s.e.m).
Prior to treatment cells were cultured to an appropriate confluency in 96 well tissue culture plates (Fisher). Cells remained either supplemented with fresh media or treated with fresh media containing active or an equivalent volume of DMSO (vehicle control). Where used, Cisplatin™ was diluted to a stock concentration in Dimethylformamide (DMF), then handled as per the manufacturer's instructions. To determine relative cell viability, reagents WST-1 (Roche) or MTT (Sigma) were used as per the manufacturer's instructions and absorbance at 450 nm measured using a Victor plate reader (Perkin Elmer).

The subject of the next series is white blood cells. Nature of the series: White blood cells in the primary canine tissue sample. The series is classed as cell-based. To be noted: seen under the microscope, 6 days.
Source text: as §1, with “Cisplatin™. A similar effect is observed when rapidly growing tumour cell lines or primary tumour cells (FIG. 8) are treated with a compound of Formula II and chemotherapeutics such as Cisplatin™. In this example primary tumour cells were isolated from a dog and then in vitro exposed to the compound of Formula II and Cisplatin™.” for “Cisplatin™.”

`CC/C=C\C/C=C\C/C=C\CCCCCCCC(=O)OC[C@H](COC1OC(CO)C(O)C(O)C1O)OC(=O)CCCCCCC/C=C\C/C=C\C/C=C\CC` (stereo partly drawn) [Formula II, 1,2-dioctadecatienyl-3-O-β-D-galactosyl-sn-glycerol]: the “canine tumour cells after Cisplatin plus Formula II” value in series [1] is “substantially all tumour cells were killed”. Besides, the “increase in the efficacy of Cisplatin” value in series [2] (10 μg synthetic Formula II plus 2 μM Cisplatin, WST-1, 72 hrs, FIG. 9b) worked out at 5 fold. In addition, the “kill of A549 cells in combination with Cisplatin” value in series [2] (96 hours, plus 1 μM Cisplatin, higher doses of Formula II) was “complete kill”. For the same compound, the “anti-proliferative activity on A549 cells” value in series [2] (alone, FIG. 11) was “anti-proliferative”. For the same compound, the “efficacy of Cisplatin on A549 cells in combination” value in series [2] (c. 1 μg active plus 2 μM Cisplatin, WST-1, 96 hrs, FIG. 7) is reported as “significant increase in the efficacy”. Further, in series [2] (in combination with Cisplatin (2 μM), FIG. 11), the “sensitizing effect to Cisplatin on A549 cells” value is given as “equivalent to hippuristanol”. Further, the “growth of A549 cells” value in series [2] (range of doses, 48 or 96 hrs, WST-1 and MTT, compound purified from natural source, FIG. 6) is on record as “inhibits the growth”. For the same compound, the “A549 cell growth, synthetic molecule” value in series [2] (synthetic Formula II, WST-1, 72 hrs, FIG. 9a) is reported as “inhibited by Formula II in a dose dependent manner”. The “white blood cells after Cisplatin and Formula II treatment” value in the series on white blood cells is listed as “still alive”.
